Structures can show the parent of a compound that is named as a salt.
Experiments:
[1] = test system: Na^+ transport rates by cystic fibrosis airway epithelia; experiment: Ussing chamber bioassay of Na+ transport (short circuit current) in freshly excised human cystic fibrosis airway epithelia; type: cell-based
Source text: Freshly excised human cystic fibrosis airway […] used to assay bioactive amiloride in solution. Freshly excised tissues is obtained from the Operating Room at The University of North Carolina Hospitals as previously described. R. Boucher, M. Stutts, M. Knowles, L. Cantley, and J. Gatzy, Na+ transport in cystic fibrosis respiratory epithelia. Abnormal basal rate and response to adenylate cyclase activation. J. Clin. Invest. 78, 1245-1252 (1986). The tissue preparation is mounted in a minature Ussing chamber that has 6 ml of solution bathing each (mucosal; basolateral) surface of the preparation. The solution is a Krebs-Ringer bicarbonate solution which approximates the ionic composition of plasma. This solution is warmed (37°) and circulated with a gas lift (95% oxygen, 5% CO2) system. Mixing time in this chamber has been previously measured by calibration with dyes (blue dextran) and is five seconds or less. The measurement of sodium transport rates is performed using a voltage clamp that is interfaced to the tissue preparation by pairs of potential sensing electrodes and current passing electrodes. The current required to null the transepithelial potential difference to zero is the short circuit current, which in human airway tissue is an accurate index of sodium transport rates. See R. Boucher et al., supra. […] This experiment was conducted as described above. […]

[2] = Aerosol size distribution (Andersen impactor); type: physicochemical; conditions: 60 Lpm
Procedure: FIG. 6 is a drawing of the experimental apparatus used in these studies. For the SpinhalerTM tests, lactose was used as a flow aid to dispense amiloride from the capsules. Before use, the lactose was not micronized, but was shaken through a 400 mesh sieve so that all lactose particles used were smaller than 37 μm. Amiloride was then mixed with the lactose in a 1:1 ratio and the material was […] through the 400 mesh sieve to break apart any agglomerates. Then 58 mg of the […] mixture of amiloride and lactose was placed in capsule with pre-drilled holes and loaded into the SpinhalerTM. Air at 60 liters per minute (Lpm) flowed in succession through the aerosol generator 60 (a SpinhalerTM), an impactor 10 as described in connection with FIGS. 1-4 above, a glass "throat" 61, and a plastic "distal pharynx" 62. Within the distal pharynx an isokinetic sample at 28.3 Lpm flowed through a nozzle 63 and into an Andersen impactor 64. The remaining 31.7 Lpm of the original 60 Lpm was drawn off through a bypass line 65 that led to a filter 66, a rotameter 67, and to a vacuum (not illustrated). Gas that left the Andersen impactor flowed through a filter 68 to a second rotameter 69 to vacuum. To conduct a test, vacuum was applied simultaneously to both the Andersen impactor and the bypass lines. Air flow at 60 Lpm was maintained for four seconds to simulate an inspiration; six inspirations were used for each capsule of drug tested. […] This amiloride was then packaged in an MDI with Freon propellants (trichlorofluoromethane and dichlorodifluoromethane) and a surfactant (sorbitan trioleate), added to break up droplets or aggregates of solid particles. A NebuhalerTM spacer 27 cm long, (see Newman, 39 Thorax 935 (1984)), was attached to the MDI to allow evaporation of the propellant and to remove larger particles by sedimentation. Prior to each release of drug from the MDI, the canister was shaken vigorously to achieve homogeneity. […] Leakage of some liquid from the MDI canisters between the filling time and the actual usage would have increased the concentration of amiloride without affecting internal canister pressure. […] The fractional efficiency of the impactor was determined by comparing the mass of amiloride collected on each stage of the Andersen impactor with and without the impactor in place. […] The components analyzed for amiloride included the SpinhalerTM and its used capsule, the NebuhalerTM spacer when used, the impactor when used, the glass throat, the distal pharynx, and the sidearm filter, plus the entry nozzle, six individual plates, and final filter of the Andersen impactor. Washes from each of these components were then analyzed for amiloride. […]

[3] = Fate/dose of aerosolized amiloride (respirable, oropharyngeal, systemic) from Spinhaler or MDI in throat/Andersen impactor apparatus
Procedure: The present invention was tested using two devices that generate dry particle aerosols, the Spinhaler™ from Fisons, Inc., See Bell, J. Pharm. Sci. 60, 1559 (1971); Cox, Brit. Med. J. 2, 634 (1969), and the metered-dose inhaler (MDI). The Spinhaler™ consists of a rotor that holds a gelatin capsule containing the dry amiloride powder. After the capsule is pierced, the patient inhales through the mouthpiece causing the rotor to spin and vibrate at a high speed, dispensing and dispersing the drug. The MDI consists of a pressurized canister containing the drug, the propellant, and a surfactant. When activated, the MDI spray disperses the drug within large droplets of propellant into a spacer. Evaporation of the propellant and sedimentation of the larger particles yield dry drug that is inhaled by the patient.
FIG. 6 is a drawing of the experimental apparatus used in these studies. For the Spinhaler™ tests, lactose was used as a flow aid to dispense amiloride from the capsules. Before use, the lactose was not micronized, but was shaken through a 400 mesh sieve so that all lactose particles used were smaller than 37 μm. Amiloride was then mixed with the lactose in a 1:1 ratio and the material was reshaken through the 400 mesh sieve to break apart any agglomerates. Then 58 mg of the resieved mixture of amiloride and lactose was placed in capsule with pre-drilled holes and loaded into the Spinhaler™. Air at 60 liters per minute (Lpm) flowed in succession through the aerosol generator 60 (a Spinhaler™), an impactor 10 as described in connection with FIGS. 1-4 above, a glass "throat" 61, and a plastic "distal pharynx" 62. Within the distal pharynx an isokinetic sample at 28.3 Lpm flowed through a nozzle 63 and into an Andersen impactor 64. The remaining 31.7 Lpm of the original 60 Lpm was drawn off through a bypass line 65 that led to a filter 66, a rotameter 67, and to a vacuum (not illustrated). Gas that left the Andersen impactor flowed through a filter 68 to a second rotameter 69 to vacuum. To conduct a test, vacuum was applied simultaneously to both the Andersen impactor and the bypass lines. Air flow at 60 Lpm was maintained for four seconds to simulate an inspiration; six inspirations were used for each capsule of drug tested.
Amiloride used with the MDI was first milled until essentially all particles were smaller than 2.6 μm in diameter as determined using an optical microscope. This amiloride was then packaged in an MDI with Freon propellants (trichlorofluoromethane and dichlorodifluoromethane) and a surfactant (sorbitan trioleate), added to break up droplets or aggregates of solid particles. A Nebuhaler™ spacer 27 cm long, (see Newman, 39 Thorax 935 (1984)), was attached to the MDI to allow evaporation of the propellant and to remove larger particles by sedimentation. Prior to each release of drug from the MDI, the canister was shaken vigorously to achieve homogeneity. In each test, the MDI aerosol was dispersed into the spacer via a 50 μl metering valve designed to deliver 1 mg amiloride per puff; however, the actual delivery was closer to 3 mg/puff as determined by spectrophotometric analysis of all amiloride collected as discussed below. Leakage of some liquid from the MDI canisters between the filling time and the actual usage would have increased the concentration of amiloride without affecting internal canister pressure. Following the dispersion and a one second delay, vacuum was applied to both the Andersen impactor and bypass lines and maintained for four seconds. This procedure was repeated for a total of six aerosol puffs from the MDI for each test The MDI tests, like the Spinhaler™ tests, used a total flow of 60 Lpm; 28.3 to the Andersen impactor and […] through the bypass line.
Tests were conducted with the MDI and spacer both with and without the impactor. […]

[4] = in vivo
cystic fibrosis = conditions: liquid aerosol; Knowles, N. Engl. J. Med. (1990); cited from earlier work
[5] = test system: luminal membrane of airway epithelia; conditions: applied to the luminal membrane of airway epithelia; cited from earlier work

Compound | time to complete inhibition of ISC (Na^+ transport) ([1]; Krebs-Ringer bicarbonate, 37°, human CF airway epithelia, dry powder particle size about 1 μm) | timed release effect (dissolution of solid particles) ([1]; respirable particles ~1 μm, aqueous solution approximating the ionic strength of plasma) | mass median diameter (mmd) ([2]; MDI with spacer and impactor) | mass median diameter (mmd) ([2]; MDI with spacer, no impactor) | mass median diameter (mmd) ([2]; Spinhaler alone) | mass median diameter (mmd) ([2]; Spinhaler with impactor) | oropharyngeal deposition, fraction of generated amiloride [3] | systemic dose relative to maximum [3] | total systemic daily dose [3] | oropharyngeal deposition (in words) ([3]; MDI or Spinhaler without spacer or impactor) | systemic dose relative to maximum (in words) ([3]; MDI with spacer alone, 12 mg/day respirable) | oropharyngeal dose (in words) ([3]; Spinhaler alone) | systemic dose (in words) ([3]; Spinhaler alone) | oropharyngeal deposition (in words) ([3]; with spacer or impactor, most particles larger than about 5 μm removed) | maximum systemic dose [4] | optimal respirable dose [4] | clinical benefit (cystic fibrosis) | inhibition of Na^+ and water absorption [5]
N=C(N)NC(=O)c1nc(Cl)c(N)nc1N [amiloride hydrochloride] | about sixty | dissolved slowly over time |  |  |  |  |  |  |  |  |  |  |  |  |  |  |  | 
N=C(N)NC(=O)c1nc(Cl)c(N)nc1N [amiloride] |  |  | about 3 um | about 6 um | > 10 um | about 4 um | 1.6% | ≤ 20 mg/day | 16.7 mg | high | somewhat higher than the maximum | far too high | excessive | decreases substantially | 20 mg daily | 8 to 12 mg daily | confirmed clinical benefit | inhibit Na^+ and water absorption
